# Activity calls are given as the source filed them. The rule behind the calls is not given here.
# How the values were obtained:
# A549 [1] = assay: Inhibition of colony formation in human A549 cells incubated for 48 hrs by Giemsa staining based microscopy; type: functional, cell-based
# NCI-H1650 [2] = assay: Antiproliferative activity against human NCI-H1650 cells assessed as reduction in cell viability incubated for 24 hrs by CCK-8 assay; type: functional, cell-based; conditions: NCI-H1650, 24 h
# [3] = Toxicity in BALB/c mouse xenografted with human MDA-MB-231 cells assessed as liver pathological change at 20 mg/kg,ip measured after 28 days; type: organism-based; conditions: in vivo, 672 h, time 28 day
# A549 [4] = assay: Inhibition of cell invasion in human A549 cells at 7.5 uM incubated for 24 hrs by matrigel based transwell assay; type: functional
# A549 [5] = assay: Induction of apoptosis in human A549 cells assessed as late apoptotic cells at 10 uM incubated for 24 hrs by annexin V-FITC/propidium iodide staining based flow cytometry analysis (reference value: 0.8%); type: functional
# NCI-H460 [6] = assay: Induction of apoptosis in human NCI-H460 cells assessed as early apoptotic cells at 10 uM incubated for 24 hrs by annexin V-FITC/propidium iodide staining based flow cytometry analysis (reference value: 0.8%); type: functional
# LoVo [7] = assay: Inhibition of colony formation in human LoVo cells incubated for 48 hrs by Giemsa staining based microscopy; type: functional, cell-based
# A549 [8] = assay: Antiproliferative activity against human A549 cells assessed as reduction in cell viability incubated for 24 hrs by CCK-8 assay; type: functional, cell-based; conditions: A549, 24 h
# A549 [9] = assay: Induction of apoptosis in human A549 cells assessed as viable cells at 10 uM incubated for 24 hrs by annexin V-FITC/propidium iodide staining based flow cytometry analysis (reference value: 95.2%); type: functional; conditions: read-out: Activity
# LoVo [10] = assay: Induction of apoptosis in human LoVo cells assessed as increase in Bax protein expression level at 7.5 uM incubated for 24 hrs by western blot assay; type: functional, cell-based
# A549 [11] = assay: Induction of apoptosis in human A549 cells assessed as necrotic cells at 10 uM incubated for 24 hrs by annexin V-FITC/propidium iodide staining based flow cytometry analysis (reference value: 0.4%); type: functional
# LoVo [12] = assay: Induction of apoptosis in human LoVo cells assessed as reduction of mitochondrial membrane potential at 10 uM incubated for 8 hrs by JC-1 staining based fluorescence microscopic assay; type: functional, cell-based
# [13] = Antiproliferative activity against human […] cells assessed as reduction in cell viability incubated for 24 hrs by CCK-8 assay; type: functional, cell-based
# L02 = assay: Cytotoxicity against human L02 cells assessed as reduction in cell viability incubated for 8 hrs by CCK-8 assay; type: toxicity, cell-based; conditions: l02, 8 h
# LoVo [14] = assay: Induction of apoptosis in human LoVo cells assessed as decrease in Bcl-2 protein expression level at 7.5 uM incubated for 24 hrs by western blot assay; type: functional, cell-based
# NCI-H460 [15] = assay: Inhibition of cell migration in human NCI-H460 cells assessed as downregulation of Snail protein expression at 7.5 uM incubated for 24 hrs by western blot analysis; type: functional, cell-based
# LoVo [16] = assay: Induction of apoptosis in human LoVo cells assessed as early apoptotic cells at 10 uM incubated for 24 hrs by annexin V-FITC/propidium iodide staining based flow cytometry analysis (reference value: 1.3%); type: functional
# NCI-H1650 [17] = assay: Inhibition of colony formation in human NCI-H1650 cells incubated for 48 hrs by Giemsa staining based microscopy; type: functional, cell-based
# AGS = assay: Antiproliferative activity against human AGS cells assessed as reduction in cell viability incubated for 24 hrs by CCK-8 assay; type: functional, cell-based
# MCF7 = assay: Antiproliferative activity against human MCF7 cells assessed as reduction in cell viability incubated for 24 hrs by CCK-8 assay; type: functional, cell-based; conditions: MCF7, 24 h
# NCI-H460 [18] = assay: Induction of apoptosis in human NCI-H460 cells assessed as necrotic cells at 10 uM incubated for 24 hrs by annexin V-FITC/propidium iodide staining based flow cytometry analysis (reference value: 0.9%); type: functional
# A549 [19] = assay: Induction of apoptosis in human A549 cells assessed as increase in ROS level at 10 uM incubated for 8 hrs by H2DCFDA staining based fluorescence microscopic assay; type: functional, cell-based
# LoVo [20] = assay: Inhibition of cell migration in human LoVo cells assessed as upregulation of E-cadherin protein expression at 7.5 uM incubated for 24 hrs by western blot analysis; type: functional, cell-based
# LoVo [21] = assay: Induction of apoptosis in human LoVo cells assessed as increase in JNK phosphorylation at 7.5 uM incubated for 24 hrs by western blot assay; type: functional, cell-based
# MDA-MB-231 = assay: Antitumor activity against human MDA-MB-231 cells xenografted in BALB/c mouse assessed as reduction in tumor growth at 20 mg/kg,ip measured after 28 days; type: functional, organism-based; conditions: time 28.0 day
# LoVo [22] = assay: Induction of apoptosis in human LoVo cells assessed as viable cells at 10 uM incubated for 24 hrs by annexin V-FITC/propidium iodide staining based flow cytometry analysis (reference value: 98%); type: functional; conditions: read-out: Activity
# A549 [23] = assay: Inhibition of cell migration in human A549 cells at 7.5 uM incubated for 24 hrs by crystal violet staining based transwell assay; type: functional
# NCI-H460 [24] = assay: Cytotoxicity against human NCI-H460 cells assessed as reduction in cell viability at 10 uM incubated for 8 hr by CCK-8 assay; type: functional, cell-based
# LoVo [25] = assay: Induction of apoptosis in human LoVo cells assessed as increase in ROS level at 10 uM incubated for 8 hrs by H2DCFDA staining based fluorescence microscopic assay; type: functional, cell-based
# NCI-H460 [26] = assay: Antiproliferative activity against human NCI-H460 cells assessed as reduction in cell viability incubated for 24 hrs by CCK-8 assay; type: functional, cell-based; conditions: NCI-H460, 24 h
# NCI-H460 [27] = assay: Induction of apoptosis in human NCI-H460 cells assessed as decrease in XIAP protein expression level at 7.5 uM incubated for 24 hrs by western blot assay; type: functional, cell-based
# NCI-H460 [28] = assay: Inhibition of cell migration in human NCI-H460 cells assessed as upregulation of E-cadherin protein expression at 7.5 uM incubated for 24 hrs by western blot analysis; type: functional, cell-based
# NCI-H460 [29] = assay: Induction of apoptosis in human NCI-H460 cells assessed as increase in Bax protein expression level at 7.5 uM incubated for 24 hrs by western blot assay; type: functional, cell-based
smiles,measurement,setting,value
C=CCc1ccc(O)c(-c2cc(CC=C)ccc2OCC[S+]([O-])CCCCN=C=S)c1 (stereo not drawn),inhibition,A549 [1],Active
same,IC50,NCI-H1650 [2],6.92 µM
same,Activity,[3],Non-Toxic
same,inhibition,A549 [4],Active
same,Activity,A549 [5],25.7%
same,Activity,NCI-H460 [6],8.2%
same,inhibition,LoVo [7],Active
same,IC50,A549 [8],9.07 µM
same,viability at 10 µM,A549 [9],50.1%
same,Activity,LoVo [10],Active
same,Activity,A549 [11],10.3%
same,Activity,LoVo [12],Active
same,IC50,[13],9.56 µM
same,Activity,L02,Non-Toxic
same,Activity,LoVo [14],Active
same,inhibition,NCI-H460 [15],Active
same,Activity,LoVo [16],16.7%
same,inhibition,NCI-H1650 [17],Active
same,IC50,AGS,8.02 µM
same,IC50,MCF7,12.7 µM
same,Activity,NCI-H460 [18],3.6%
same,Activity,A549 [19],Active
same,inhibition,LoVo [20],Active
same,Activity,LoVo [21],Active
same,Activity,MDA-MB-231,Active
same,viability at 10 µM,LoVo [22],22%
same,inhibition,A549 [23],Active
same,Activity,NCI-H460 [24],Active
same,Activity,LoVo [25],Active
same,IC50,NCI-H460 [26],6.15 µM
same,Activity,NCI-H460 [27],Active
same,inhibition,NCI-H460 [28],Active
same,Activity,NCI-H460 [29],Active
